From US20220142941A1, “COMBINATION THERAPEUTIC REGIMENS WITH 1,6-DIBROMO-1,6-DIDEOXY-DULCITOL” (Eleison Pharmaceuticals LLC, priority 2019, published 2022) come the findings set out here.

Common to all, as to type: cell-based, human
Assay [1] relates to panel of 20 patient derived cell cultures. Nature of the assay: DBD combination treatment, overall result over the panel. Particulars: Tables 2 and 3, day 5 and day 8, all cultures. How it is done:
(§1) Crystalline DBD polymorph treatment was combined with chemotherapy, radiotherapy and targeted inhibitors to determine whether the crystalline DBD polymorph form could: enhance efficacy of the conventional therapies; enhance efficacy when combined with newer ‘targeted’ therapies; or would make (a subset of) cultures more sensitive to this treatment.
(§2) Therefore, cultures were treated with: • a.

The subject of assay [2] is GS281NS. Briefly: DBD combination treatment, viability enhancement factor. Particulars: GS281NS (p15), labelled therapy combined with crystalline DBD polymorph. On the procedure:
as §1, §2

Assay [3] relates to GS257NS. The description is as above. The conditions noted are these: GS257NS (p16 + p17), labelled therapy combined with crystalline DBD polymorph. How it is done: as §1, §2
In assay [4] the test system is GS186coreNS. The assay is described as above. Particulars: GS186coreNS (p18), labelled therapy combined with crystalline DBD polymorph. How it is done: as §1, §2
Assay [5] concerns GS323periNS. The assay is described as above. The conditions noted are these: Day 5; GS323periNS (p20 + p19); labelled therapy combined with crystalline DBD polymorph. On the procedure:
as §1, §2

The test system of assay [6] is GS186periNS. The description is as above. Particulars: GS186periNS (p15), labelled therapy combined with crystalline DBD polymorph. On the procedure: as §1, §2
For assay [7], the system named is GS249NS. The description is as above. The conditions noted are these: Day 5; GS249NS (p17); labelled therapy combined with crystalline DBD polymorph. On the procedure:
as §1, §2

Assay [8] deals with GS324coreNS. Described as above. The conditions noted are these: GS324coreNS (p19), labelled therapy combined with crystalline DBD polymorph. On the procedure: as §1, §2
The subject of assay [9] is GS279periNS. Described as above. The conditions noted are these: GS279periNS (p16 + p15), labelled therapy combined with crystalline DBD polymorph. On the procedure:
as §1, §2

Assay [10] concerns GS289NS. The assay is described as above. Particulars: GS289NS (p15 + p16), labelled therapy combined with crystalline DBD polymorph. On the procedure:
as §1, §2

The test system of assay [11] is GS104periNS. The assay is described as above. The conditions noted are these: GS104periNS (p21 + p22), labelled therapy combined with crystalline DBD polymorph. How it is done: as §1, §2
For assay [12], the system named is GS245NS. Described as above. The conditions noted are these: GS245NS (p16 + p15), labelled therapy combined with crystalline DBD polymorph. How it is done:
as §1, §2

In assay [13] the test system is GS359NS. Described as above. The conditions noted are these: GS359NS (p15 + p14), labelled therapy combined with crystalline DBD polymorph. How it is done:
as §1, §2

Assay [14] deals with GS184NS. Described as above. Particulars: GS184NS (p18 + p19), labelled therapy combined with crystalline DBD polymorph. On the procedure:
as §1, §2

The subject of assay [15] is GS224NS. Described as above. Particulars: GS224NS (p17), labelled therapy combined with crystalline DBD polymorph. On the procedure: as §1, §2
Assay [16] concerns GS304NS. Described as above. The conditions noted are these: GS304NS (p16), labelled therapy combined with crystalline DBD polymorph. On the procedure:
as §1, §2

Assay [17] deals with GS365NS. The assay is described as above. The conditions noted are these: GS365NS (p17 + p16), labelled therapy combined with crystalline DBD polymorph. How it is done: as §1, §2
The test system of assay [18] is GS279coreNS. The assay is described as above. Particulars: Day 5; GS279coreNS (p12 + p13); labelled therapy combined with crystalline DBD polymorph. How it is done:
as §1, §2

For assay [19], the system named is GS102periNS. The description is as above. Particulars: GS102periNS (p20 + p21), labelled therapy combined with crystalline DBD polymorph. On the procedure: as §1, §2
Assay [20] deals with GS203NS. Described as above. The conditions noted are these: GS203NS (P19 + p18), labelled therapy combined with crystalline DBD polymorph. On the procedure:
as §1, §2

Assay [21] has as its system GS261NS. Described as above. The conditions noted are these: GS261NS (p13), labelled therapy combined with crystalline DBD polymorph. On the procedure: as §1, §2

Entries after “also recorded” stand apart in the source; their conditions may differ.

`Cc1ccc(NC(=O)c2ccc(CN3CCN(C)CC3)cc2)cc1Nc1nccc(-c2cccnc2)n1` [Imatinib]: the “enhancement factors overall, in combination with DBD” value in [1] is on record as “highest enhancement factors; also recorded: high enhancement factor, most cases”.

In the case of `Cn1nnc2c(C(N)=O)ncn2c1=O` [TMZ, Temozolomide], the “enhancement factor (viability % of most effective monotherapy divided by viability % of combination)” value stood at 1.264 in assay [2] (Day 5); 1.161 in [2] (Day 8); 1.005 in [3] (Day 5); 0.858 in assay [3] (Day 8); 1.751 in assay [4] (Day 5); 2.029 in [4] (Day 8). Moreover, the “enhancement factor (viability % of most effective monotherapy divided by viability % of combination)” value in [5] was determined as 1.553; in assay [6] (Day 5), 2.167; in assay [6] (Day 8) it was 1.220; in assay [7] it was 1.602; in assay [8] (Day 5) it was 1.700; in assay [8] (Day 8), 1.377. The “enhancement factor (viability % of most effective monotherapy divided by viability % of combination)” value is 1.162 in assay [9] (Day 5); 1.129 in assay [9] (Day 8); 1.376 in [10] (Day 5); 1.032 in assay [10] (Day 8); 1.101 in assay [11] (Day 5); 0.987 in assay [11] (Day 8). The “enhancement factor (viability % of most effective monotherapy divided by viability % of combination)” value in assay [12] (Day 5) was found to be 1.099; in assay [12] (Day 8) it was 1.088; in assay [13] (Day 5) it was 1.830; in assay [13] (Day 8), 1.700; in [14] (Day 5), 1.362; in assay [14] (Day 8), 1.531. Also, the “enhancement factor (viability % of most effective monotherapy divided by viability % of combination)” value amounted to 1.335 in assay [15] (Day 5); 1.470 in assay [15] (Day 8); 1.147 in assay [16] (Day 5); 1.134 in [16] (Day 8); 1.156 in assay [17] (Day 5); 1.019 in [17] (Day 8). The “enhancement factor (viability % of most effective monotherapy divided by viability % of combination)” value in assay [18] is recorded as 1.440; in assay [19] (Day 5), 1.268; in assay [19] (Day 8), 1.309; in [20] (Day 5), 1.055; in [20] (Day 8), 1.159; in assay [21] (Day 5) it was 1.271. Further, in [21] (Day 8), the “enhancement factor (viability % of most effective monotherapy divided by viability % of combination)” value came to 1.462.
